# Experimental data reported in patent US9725445B2, “Cycloalkyl nitrile pyrazolo pyridones as Janus kinase inhibitors” (Merck Sharp & Dohme Corp., priority 2013, dated 2017).
# Assays:
# JAK2 = JAK2 (Homo sapiens (Human), UniProt O60674); test: Jak biochemical HTRF assay, JAK2; conditions: HTRF biochemical assay, recombinant GST-tagged catalytic domain; read-out: JAK2 IC50
# JAK1 = JAK1 (Homo sapiens (Human), UniProt P23458); test: Jak biochemical HTRF assay, JAK1; conditions: HTRF biochemical assay, recombinant GST-tagged catalytic domain; read-out: JAK1 IC50
# Chain of JAK1 (P23458 875-1153): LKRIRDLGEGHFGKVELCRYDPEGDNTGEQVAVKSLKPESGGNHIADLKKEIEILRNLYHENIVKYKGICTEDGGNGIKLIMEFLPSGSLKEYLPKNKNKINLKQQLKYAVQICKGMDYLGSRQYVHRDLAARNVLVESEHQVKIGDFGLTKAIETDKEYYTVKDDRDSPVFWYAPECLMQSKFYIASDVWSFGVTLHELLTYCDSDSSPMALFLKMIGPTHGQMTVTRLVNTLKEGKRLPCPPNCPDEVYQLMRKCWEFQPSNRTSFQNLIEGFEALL
# Chain of JAK2 (O60674 849-1124): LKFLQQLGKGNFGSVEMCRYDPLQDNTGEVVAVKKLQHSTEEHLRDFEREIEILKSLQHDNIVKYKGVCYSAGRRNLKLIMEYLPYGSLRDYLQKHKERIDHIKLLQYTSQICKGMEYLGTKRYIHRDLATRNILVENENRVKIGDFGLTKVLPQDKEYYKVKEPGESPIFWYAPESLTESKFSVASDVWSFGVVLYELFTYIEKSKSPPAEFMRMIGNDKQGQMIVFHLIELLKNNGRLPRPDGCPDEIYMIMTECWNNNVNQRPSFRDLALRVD
SMILES,IC50 (JAK2) [nM],IC50 (JAK1) [nM]
"N#C[C@H]1CCCC[C@@H]1n1nc(Nc2ccc3c(c2)CNC3C(F)F)c2c(=O)[nH]ccc21 (single isomer, unassigned) [Example 15-28, (1S,2S)-2-(3-{[(1S or 1R)-1-(difluoromethyl)-2,3-dihydro-1H-isoindol-5-yl]amino}-4-oxo-4,5-dihydro-1H-pyrazolo[4,3-c]pyridin-1-yl)cyclohexanecarbonitrile]",0.63,0.25
"N#C[C@H]1CCCC[C@@H]1n1nc(Nc2cccc(Cn3ccnn3)c2)c2c(=O)[nH]ccc21 [Example 3-26, (1S,2S)-2-(4-oxo-3-{[3-(1H-1,2,3-triazol-1-ylmethyl)phenyl]amino}-4,5-dihydro-1H-pyrazolo[4,3-c]pyridin-1-yl)cyclohexanecarbonitrile]",0.49,0.1
"N#C[C@H]1C[C@@H](N2CCC2)CC[C@@H]1n1nc(Nc2ccc(C(F)(F)F)cc2)c2c(=O)[nH]ccc21 [Example 5-8, (1S,2S,5S)-5-(azetidin-1-yl)-2-(4-oxo-3-((4-(trifluoromethyl)phenyl)amino)-4,5-dihydro-1H-pyrazolo[4,3-c]pyridin-1-yl)cyclohexanecarbonitrile]",22,0.88
"N#C[C@H]1CCCC[C@@H]1n1nc(Nc2ccc3c(c2)CCS3(=O)=O)c2c(=O)[nH]ccc21 [Example 3-59, (1S,2S)-2-{3-[(1,1-dioxido-2,3-dihydro-1-benzothiophen-5-yl)amino]-4-oxo-4,5-dihydro-1H-pyrazolo[4,3-c]pyridin-1-yl}cyclohexanecarbonitrile]",0.71,0.062
"CC(C)(C)OC(=O)CC(C)(C)N1Cc2cc(Nc3nn([C@H]4CCCC[C@@H]4C#N)c4cc[nH]c(=O)c34)ccc2S1(=O)=O [Example 3-155, tert-butyl 3-[5-({1-[(1S,2S)-2-cyanocyclohexyl]-4-oxo-4,5-dihydro-1H-pyrazolo[4,3-c]pyridin-3-yl}amino)-1,1-dioxido-1,2-benzisothiazol-2(3H)-yl]-3-methylbutanoate]",0.71,0.12
"COCCN1Cc2cc(Nc3nn([C@H]4CCCC[C@@H]4C#N)c4cc[nH]c(=O)c34)ccc2S1(=O)=O [Example 3-83, (1S,2S)-2-(3-{[2-(2-methoxyethyl)-1,1-dioxido-2,3-dihydro-1,2-benzisothiazol-5-yl]amino}-4-oxo-4,5-dihydro-1H-pyrazolo[4,3-c]pyridin-1-yl)cyclohexanecarbonitrile]",0.55,0.066
"N#C[C@H]1CCCC[C@@H]1n1nc(Nc2ccc(C3(N)CCC3)cc2)c2c(=O)[nH]ccc21 [Example 12-2, (1S,2S)-2-(3-((4-(1-aminocyclobutyl)phenyl)amino)-4-oxo-4,5-dihydro-1H-pyrazolo[4,3-c]pyridin-1-yl)cyclohexanecarbonitrile]",0.32,0.36
"CC1(N2Cc3cc(Nc4nn([C@H]5CCCC[C@@H]5C#N)c5cc[nH]c(=O)c45)ccc3C2=O)CCOCC1 [Example 15-63, (1S,2S)-2-(3-{[2-(4-methyltetrahydro-2H-pyran-4-yl)-1-oxo-2,3-dihydro-1H-isoindol-5-yl]amino}-4-oxo-4,5-dihydro-1H-pyrazolo[4,3-c]pyridin-1-yl)cyclohexanecarbonitrile]",0.14,0.062
"N#CCC1(n2nc(Nc3ccc(C(N)C(F)F)cc3)c3c(=O)[nH]ccc32)CCCCC1 (single isomer, unassigned) [Example 9-1, (S or R)-2-(1-(3-(4-(1-Amino-2,2-difluoroethyl)phenylamino)-4-oxo-4,5-dihydro-1H-pyrazolo[4,3-c]pyridin-1-yl)cyclohexyl)acetonitrile]",0.47,0.19
"N#C[C@H]1CCCC[C@@H]1n1nc(Nc2ccc3c(c2)CN(C(=O)c2cnc(N4CCCCC4)cn2)C3)c2c(=O)[nH]ccc21 [Example 3-158, (1S,2S)-2-[4-oxo-3-({2-[(5-piperidin-1-ylpyrazin-2-yl)carbonyl]-2,3-dihydro-1H-isoindol-5-yl}amino)-4,5-dihydro-1H-pyrazolo[4,3-c]pyridin-1-yl]cyclohexanecarbonitrile]",1.5,0.98
"CC1(N2Cc3cc(Nc4nn([C@H]5CCCC[C@@H]5C#N)c5cc[nH]c(=O)c45)ccc3S2(=O)=O)CCC(F)(F)CC1 [Example 15-73, (1S,2S)-2-(3-{[2-(4,4-difluoro-1-methylcyclohexyl)-1,1-dioxido-2,3-dihydro-1,2-benzisothiazol-5-yl]amino}-4-oxo-4,5-dihydro-1H-pyrazolo[4,3-c]pyridin-1-yl)cyclohexanecarbonitrile]",0.55,0.28
"N#C[C@H]1CCCC[C@@H]1n1nc(Nc2ccc(C3CCCN3)cc2)c2c(=O)[nH]ccc21 (single isomer, unassigned) [Example 3-71, (1S,2S)-2-[4-oxo-3-({4-[(2S or 2R)-pyrrolidin-2-yl]phenyl}amino)-4,5-dihydro-1H-pyrazolo[4,3-c]pyridin-1-yl]cyclohexanecarbonitrile]",0.54,0.27
"CN(C)[C@H]1CC[C@H](n2nc(Nc3ccc(OC(F)(F)F)cc3)c3c(=O)[nH]ccc32)[C@@H](C#N)C1 [Example 5-26, (1S,2S,5S)-5-(dimethylamino)-2-(4-oxo-3-((4-(trifluoromethoxy)phenyl)amino)-4,5-dihydro-1H-pyrazolo[4,3-c]pyridin-1-yl)cyclohexanecarbonitrile]",7,0.33
"N#C[C@H]1CCCC[C@@H]1n1nc(Nc2ccc3c(c2)CC(C(=O)O)C3)c2c(=O)[nH]ccc21 (stereo partly drawn) [Example 13-1, 5-((1-((1S,2S)-2-Cyanocyclohexyl)-4-oxo-4,5-dihydro-1H-pyrazolo[4,3-c]pyridin-3-yl)amino)-2,3-dihydro-1H-indene-2-carboxylic acid]",3.4,0.47
"N#C[C@H]1C[C@@H](N2CCC2)CC[C@@H]1n1nc(Nc2ccc(OC(F)(F)F)cc2)c2c(=O)[nH]ccc21 [Example 5-24, (1S,2S,5S)-5-(azetidin-1-yl)-2-(4-oxo-3-((4-(trifluoromethoxy)phenyl)amino)-4,5-dihydro-1H-pyrazolo[4,3-c]pyridin-1-yl)cyclohexanecarbonitrile]",31,0.88
"CC(O)(CO)c1cc(Nc2nn([C@H]3CCCC[C@@H]3C#N)c3cc[nH]c(=O)c23)ccc1S(C)(=O)=O (stereo partly drawn) [Example 3-87, (1S,2S)-2-(3-{[3-(1,2-dihydroxy-1-methylethyl)-4-(methylsulfonyl)phenyl]amino}-4-oxo-4,5-dihydro-1H-pyrazolo[4,3-c]pyridin-1-yl)cyclohexanecarbonitrile]",0.95,0.25
"CN(C(C)(C)C)S(=O)(=O)c1ccc(Nc2nn([C@H]3CCCCC[C@@H]3C#N)c3cc[nH]c(=O)c23)cc1 (single isomer, unassigned) [Example 15-48, N-tert-butyl-4-({1-[(1S,2S or 1R,2R)-2-cyanocycloheptyl]-4-oxo-4,5-dihydro-1H-pyrazolo[4,3-c]pyridin-3-yl}amino)-N-methylbenzenesulfonamide]",18,19
"N#C[C@H]1CCCC[C@@H]1n1nc(Nc2ccc([C@@H](N)C(F)(F)F)cc2)c2c(=O)[nH]ccc21 [Example 7-3, (1S,2S)-2-[3-({4-[(1R)-1-amino-2,2,2-trifluoroethyl]phenyl}amino)-4-oxo-4,5-dihydro-1H-pyrazolo[4,3-c]pyridin-1-yl]cyclohexanecarbonitrile]",0.37,0.12
"N#C[C@H]1CCCC[C@@H]1n1nc(Nc2ccc(Cl)cc2)c2c(=O)[nH]ccc21 [Example 3-91, (1S,2S)-2-(3-((4-chlorophenyl)amino)-4-oxo-4,5-dihydro-1H-pyrazolo[4,3-c]pyridin-1-yl)cyclohexanecarbonitrile]",10.3,0.45
"CC(C)[C@H](C)N1Cc2ccc(Nc3nn([C@H]4CCCC[C@@H]4C#N)c4cc[nH]c(=O)c34)cc2C1 [Example 3-148, (1S,2S)-2-[3-({2-[(1S)-1,2-dimethylpropyl]-2,3-dihydro-1H-isoindol-5-yl}amino)-4-oxo-4,5-dihydro-1H-pyrazolo[4,3-c]pyridin-1-yl]cyclohexanecarbonitrile]",0.43,0.31
"N#C[C@H]1CCC[C@@H]1n1nc(Nc2ccc3c(c2)CN(CC(F)(F)F)S3(=O)=O)c2c(=O)[nH]ccc21 [Example 3-101, (1S,2S)-2-(3-{[1,1-dioxido-2-(2,2,2-trifluoroethyl)-2,3-dihydro-1,2-benzisothiazol-5-yl]amino}-4-oxo-4,5-dihydro-1H-pyrazolo[4,3-c]pyridin-1-yl)cyclopentanecarbonitrile]",0.5,0.056
"CC(C)CN1Cc2ccc(Nc3nn([C@H]4CCCC[C@@H]4C#N)c4cc[nH]c(=O)c34)cc2C1 [Example 3-75, (1S,2S)-2-(3-{[2-(2-methylpropyl)-2,3-dihydro-1H-isoindol-5-yl]amino}-4-oxo-4,5-dihydro-1H-pyrazolo[4,3-c]pyridin-1-yl)cyclohexanecarbonitrile]",0.68,0.28
"CN(C)[C@@H]1CC[C@H](n2nc(Nc3ccc(OC(F)(F)F)cc3)c3c(=O)[nH]ccc32)[C@@H](C#N)C1 [Example 5-25, (1S,2S,5R)-5-(dimethylamino)-2-(4-oxo-3-((4-(trifluoromethoxy)phenyl)amino)-4,5-dihydro-1H-pyrazolo[4,3-c]pyridin-1-yl)cyclohexanecarbonitrile]",22,0.96
"CC(C)(O)c1cn(Cc2ccc(Nc3nn([C@H]4CCCC[C@@H]4C#N)c4cc[nH]c(=O)c34)cc2)nn1 [Example 3-52, (1S,2S)-2-{3-[(4-{[4-(1-hydroxy-1-methylethyl)-1H-1,2,3-triazol-1-yl]methyl}phenyl)amino]-4-oxo-4,5-dihydro-1H-pyrazolo[4,3-c]pyridin-1-yl}cyclohexanecarbonitrile]",0.41,0.16
"N#C[C@H]1CCCC[C@@H]1n1nc(Nc2ccc(S(=O)(=O)N3CCCCC3)cc2)c2c(=O)[nH]ccc21 [Example 3-23, (1S,2S)-2-(4-oxo-3-{[4-(piperidin-1-ylsulfonyl)phenyl]amino}-4,5-dihydro-1H-pyrazolo[4,3-c]pyridin-1-yl)cyclohexanecarbonitrile]",0.48,0.31
